Patent publication US6906083B2 (dated 2005)

| melting point | SMILES |
| --- | --- |
| > 240 °C (dec.) | COc1cc2c(cc1OC)C(=O)C(F)(CC1CCNCC1)C2.Cl (stereo not drawn) |
| 215 to 220 °C (dec.) | COc1cc2c(cc1OC)C(=O)C(F)(CC1CCN(C)CC1)C2.Cl (stereo not drawn) |
| 220 to 225 °C (dec.) | COc1cc2c(cc1OC)C(=O)C(F)(CC1CCN(CC(C)C)CC1)C2.Cl (stereo not drawn) |
